Laboratory results published in publication PMC11050816, “Pharmacokinetics and Safety of Lurbinectedin Administrated with Itraconazole in Cancer Patients: A Drug–Drug Interaction Study” (Marine Drugs, 2024).

Assays:
[1] = Plasma pharmacokinetics of lurbinectedin metabolites M1 and M4 (metabolite/parent ratio) with and without itraconazole
Experimental: The study consisted of two parts. In Part A, three patients were sequentially enrolled to receive Sequence 1 (TR: Test–Reference) consisting of itraconazole (200 mg […]; once-daily for 12 days) co-administered with lurbinectedin (0.8 mg/m^2, 1 h, IV infusion q3wk) (Cycle 1), followed by two consecutive cycles (Cycles 2 and 3) of lurbinectedin alone (3.2 mg/m^2, 1 h, IV infusion q3wk), with the third cycle being optional. In Part B, patients were randomized (in a ratio 1:1, using sequence a block randomization implemented with Medidata Rave Randomization and Trial Supply Management [RTSM]) to receive either Sequence 1 (TR: Test–Reference), but with lurbinectedin 0.9 mg/m^2, 1 h, IV when co-administered with itraconazole, or Sequence 2 (RT: Reference–Test) of lurbinectedin alone (Cycle 1), followed by itraconazole and lurbinectedin co-administration (Cycle 2), with lurbinectedin alone (optional Cycle 3) (see Figure 2 above).
The itraconazole dose (200 mg) was selected based on the published literature for the design of clinical drug–drug interaction studies with itraconazole. In the co-administration cycles, itraconazole was administered as 200 mg (2 × 100 mg capsules) once-daily doses in the morning after breakfast for 12 consecutive days, self-administered at home starting from […] (i.e., four days before lurbinectedin infusion) to Day 8 (i.e., seven days after lurbinectedin infusion), following recommendations from the Summary of Product Characteristics. On Day 1 (day of lurbinectedin infusion), itraconazole was given immediately prior to the start of the lurbinectedin infusion. In fact, itraconazole had to be administered after collecting the first itraconazole PK sample and before the start of lurbinectedin infusion (−15 min to −1 min). In case of lurbinectedin delay (≤2 days), itraconazole could be administered for a maximum of 14 days (Figure 6). In Sequence 1 (TR), itraconazole for self-administration and the patient’s diary were given to the patient on Day −5 with a −2/+1 daytime window (i.e., from Day −7 to Day −4). In Sequence 2 (RT), itraconazole and the patient’s diary were given to the patient on Day −5 of Cycle 2 with a −2/+1 daytime window (i.e., from Day 15 of Cycle 1 to Day −4 of Cycle 2).
The impact of itraconazole on the lurbinectedin PK profile compared with that of lurbinectedin alone was evaluated using the primary study PK endpoints: Cmax and AUC0–∞ of total plasma lurbinectedin. Other secondary PK endpoints included AUC0–t, total plasma CL, t1/2, and the volume of distribution at steady state (Vss). The following unbound parameters were also estimated: AUCu,0–∞, AUCu,0–t, Cu,max, CLu, Vss,u, and t1/2,u. Plasma PK parameters were calculated with a standard non–compartmental analysis approach using Phoenix® WinNonlin® v6.4 (Certara USA, Inc., Princeton, NJ, USA).
Serial peripheral venous blood samples for the lurbinectedin PK analysis (and its metabolites M1 and M4) were collected in Cycle 1 and Cycle 2 (Sequences 1 and 2), with a schedule of thirteen samples in all patients as follows: at pre-dose, 5 min prior to the end of the lurbinectedin infusion, and at 0.5, 1, 2, 4, 6, 24, 48, 96, 168, 241, and 337 h post-dose on Days 1, 2, 3, 5, 8, 11, and 15. Only in Part B (Sequence 2) was a blood sampling test at 505 h post-lurbinectedin dosing to be collected before the lurbinectedin infusion started on Day 1 of Cycle 3, if detectable lurbinectedin concentrations were present in the pre-infusion sample in Cycle 2 of Part A. Blood samples for the PK analysis of itraconazole (and its active metabolite, hydroxy-itraconazole) were collected in cycles with itraconazole co-administration (i.e., Cycle 1 of Part A and B [Sequence 1] and Cycle 2 of Part B [Sequence 2]) at pre-dose and at 1, 2, 4, 24, and 168 h post-itraconazole dosing on Days 1, 2, and 8.

[2] = cited from earlier work
[3] = co-administration with itraconazole compared with lurbinectedin alone
[4] = treatment LRB alone (R), dose-normalized, n = 8
[5] = lurbinectedin + itraconazole divided by lurbinectedin alone

Row | Molecule | Conversion of lurbinectedin to the metabolite [1, 3] | Metabolite/parent ratio (MPR) of AUC0–t, geometric mean (CV%) ([1]; human, in vivo) | Metabolite/parent ratio (MPR) of Cmax, geometric mean (CV%) ([1]; human, in vivo) | Metabolite/parent ratio (MPR) of AUC0–t, geometric mean (CV%) [1, 4] | Metabolite/parent ratio (MPR) of Cmax, geometric mean (CV%) [1, 4] | Reduction of the conversion of lurbinectedin to the metabolite [1, 3] | MPR of AUC0–t, least-squares geometric mean ratio [1, 5] | MPR of Cmax, least-squares geometric mean ratio [1, 5] | Mild and transient liver enzymes elevations, patients ([2]; chronic dosing) | Risk of QTc prolongation in the electrocardiogram ([2]; especially at ≤200 mg once a day, in vitro data and clinical experience)
1 | 1′,3′–dihydroxy–lurbinectedin [M1] | almost completely inhibited | 0.74 (NA) µg·h/L/mg | 0.38 (NA) µg/L/mg | 0.48 (360.01) µg·h/L/mg | 0.29 (135.88) µg/L/mg |  |  |  |  | 
2 | COc1ccc2[nH]c3c(c2c1)CCN[C@]31CS[C@@H]2c3c(OC(C)=O)c(C)c4c(c3[C@H](COC1=O)N1[C@@H]2[C@@H]2N[C@@H](Cc3cc(C)c(OC)c(O)c32)[C@@H]1O)OCO4 [M4, N–desmethyl–lurbinectedin] |  | 1.29 (209.58) µg·h/L/mg | 0.61 (47.57) µg/L/mg | 1.45 (135.58) µg·h/L/mg | 0.49 (60.3) µg/L/mg | 69% | 31.53% | 92.47% |  | 
3 | CCC(C)n1ncn(-c2ccc(N3CCN(c4ccc(OCC5COC(Cn6cncn6)(c6ccc(Cl)cc6Cl)O5)cc4)CC3)cc2)c1=O (centres unmarked) [itraconazole] |  |  |  |  |  |  |  |  | < 5% | low
